According to patent US9527819B2, “Pyridazine compounds, compositions and methods” (NORTHWESTERN UNIVERSITY, priority 2004, dated 2016):

What was measured:
hERG K+ channel = biological target: T1, hERG K+ channel (Homo sapiens, UniProt Q12809); test: hERG channel activity patch clamp inhibition assay; format: cell-based; conditions: three concentrations (0.1, 1, 10 μM), whole cell patch clamp
T1 construct: MDS PharmaService (commercial assay service)
Text: The hERG channel activity inhibition assay provides whole cell electrophysiological data about compound effects on the hERG K^+ channel function. Whole cell patch clamp methodology is generally considered to be the gold-standard determination of ion channel activity, rather than simply measuring channel binding. The standard testing procedure is to use 3 to 5 concentrations of compound at log dilutions with each concentration tested in triplicate (three cells). This allows a balance between achieving a reasonably accurate IC50 measurement against a broad concentration range, and reducing cell attrition that would occur during more protracted experiment durations. After completion of compound dose-response procedures, a known hERG channel inhibitor, such as astemizole, is applied as a positive control.

[1] = system: Aβ-infused mice (hippocampus); test: Human Aβ infusion mouse model of neuroinflammation and neuronal injury; format: in vivo
Text: Briefly, oligomeric […] was infused ICV for 28 days with a micro-osmotic pump. […] At post-operative day 60, mice were perfused and sacrificed, and hippocampal endpoints measured as previously described. Endpoint assays included immunohistochemical detection of activated astrocytes and microglia by glial fibrillary acidic protein (GFAP) and F4/80 staining, measurement of the levels of the pro-inflammatory cytokines IL-1|S, TNFa, and S100B by ELISA, and determination of synaptic damage by analysis of the levels of postsynaptic density protein-95 (PSD-95). […] Cultures were treated with control buffer, C, or activated in the absence, A, or presence, A+188, of 7.5 μMW01-5-188WH. […] Bar=125 μm. […] A schematic of the experimental paradigm is shown. […] Bars=25 μm. […] Quantification of amyloid burden from all mice (n=5/group) was done by determination of the amyloid load. Data are mean±SEM. […] (C) Spontaneous alternation of mice in the Y-maze, a hippocampus-dependent spatial learning task, was measured for 10 days during the 7th and 8th week after the start of Aβ infusion. Data are mean±SEM of n=5 or 10 per group.

anesthetized guinea pigs = test: Cardiac QT interval prolongation assay; format: in vivo, guinea pig; conditions: PO 15 mg/kg
Method: The QT interval studies are performed by evaluating compounds for effects on QT interval in Lead II electrocardiograms measured in anesthetized guinea pigs (Hirohashi et al., 1991), one of the species recommended in the FDA white paper. Vehicle or compound is administered orally at 15 mg/kg (dosing volume of 10 ml/kg) to groups of male guinea pigs (weighing 330-350 g), with 5 animals per group. […] Heart rate, arterial blood pressure, and QT intervals are measured at baseline, and at 15, 30, 45, and 60 min after compound administration. Sotalol administered iv at 0.3 mg/kg serves as the positive control compound. The QT intervals are corrected for changes in heart rate using both Bazett's and Fridericia's formulae. Any increase in QT interval values over baseline values exceeding the upper 95% confidence limit of the mean changes at the corresponding time point in the vehicle-treated control group for two consecutive observation times indicates significant QT interval prolongation in the individually treated animals.

[2] = system: BV-2 mouse microglial cells; test: LPS-stimulated proinflammatory cytokine production in BV-2 microglial cell culture assay; format: cell-based; conditions: for IL-1β production / TNFα production: LPS 100 ng/ml, 16 hrs, levels in cell lysates
Method: EL-1/3 and TNFa levels in cell lysates were determined by electro-chemiluminescent detection in a Meso-Scale Discovery (MSD) kit, as per the manufacturer's instructions.
Data are the mean+/− SEM of triplicate determinations.

hERG = hERG (Homo sapiens, UniProt Q12809); test: hERG competition binding assay (3H-astemizole); conditions: HEK-293 cells stably expressing recombinant hERG channels, probe 3H-astemizole
Sequence of hERG (Q12809 whole entry): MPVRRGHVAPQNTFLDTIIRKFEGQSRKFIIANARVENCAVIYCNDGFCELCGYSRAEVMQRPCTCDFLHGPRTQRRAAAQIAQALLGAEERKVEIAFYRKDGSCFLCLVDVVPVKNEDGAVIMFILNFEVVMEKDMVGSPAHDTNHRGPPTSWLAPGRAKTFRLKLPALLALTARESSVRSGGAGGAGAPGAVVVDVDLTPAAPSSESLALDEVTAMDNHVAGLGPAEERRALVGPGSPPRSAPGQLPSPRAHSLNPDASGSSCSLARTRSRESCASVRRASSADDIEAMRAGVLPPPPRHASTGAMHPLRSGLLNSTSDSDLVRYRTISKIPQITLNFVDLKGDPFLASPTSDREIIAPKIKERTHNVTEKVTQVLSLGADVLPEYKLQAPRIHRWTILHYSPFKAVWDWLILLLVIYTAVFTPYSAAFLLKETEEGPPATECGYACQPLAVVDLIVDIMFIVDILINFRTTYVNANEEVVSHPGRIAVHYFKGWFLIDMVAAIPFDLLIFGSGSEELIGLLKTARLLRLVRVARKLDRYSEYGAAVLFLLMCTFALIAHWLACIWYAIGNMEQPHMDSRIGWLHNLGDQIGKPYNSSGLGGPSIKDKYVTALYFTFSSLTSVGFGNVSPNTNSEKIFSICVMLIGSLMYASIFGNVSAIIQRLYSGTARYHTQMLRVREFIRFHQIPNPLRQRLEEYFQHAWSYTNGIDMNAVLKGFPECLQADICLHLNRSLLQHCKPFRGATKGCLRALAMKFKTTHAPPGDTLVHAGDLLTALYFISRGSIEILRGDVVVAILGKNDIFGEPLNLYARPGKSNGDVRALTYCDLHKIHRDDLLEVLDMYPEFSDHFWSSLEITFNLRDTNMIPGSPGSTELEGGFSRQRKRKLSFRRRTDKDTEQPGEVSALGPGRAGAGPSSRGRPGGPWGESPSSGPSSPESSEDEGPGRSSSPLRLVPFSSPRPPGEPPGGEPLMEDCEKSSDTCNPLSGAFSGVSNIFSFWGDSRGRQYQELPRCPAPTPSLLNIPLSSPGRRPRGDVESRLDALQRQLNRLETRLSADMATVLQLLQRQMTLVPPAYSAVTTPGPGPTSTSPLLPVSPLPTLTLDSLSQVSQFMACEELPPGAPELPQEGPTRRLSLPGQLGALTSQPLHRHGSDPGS
Text: The initial assay is a radioligand binding assay that tests the ability of the test compound to compete with ^3H-astemizole (a reference standard that binds to hERG channels with nM affinity) for binding to recombinant hERG channels stably expressed on human HEK-293 cells. […] This is usual for medium throughout screens but is not recommended in the FDA document and tends to give false positives, as evidenced by the results reported below.

[3] = Oral administration / brain uptake assay; conditions: mouse, in vivo
Method: At various times (0-60 min) after administration, mice were sacrificed, blood removed by cardiac puncture, and brains immediately harvested, weighed, quick-frozen in liquid nitrogen, and stored at −80° C. until assayed. Brain tissue was homogenized in 1.5 ml of 0.1 M perchloric acid. After centrifugation (12,000×g for 10 min), the supernatant was neutralized, with 1 M NaOH and then extracted three times with 2 ml of dichloromethane by centrifugation at 3,000×g for 5 min. The organic phases from the three successive extractions were pooled and then vaporated to dryness under reduced pressure. The dried sample was reconstituted in 100 ul of HPLC mobile phase (80% acetonitrile, 0.08% formic acid, 20% H2O), and 20 μl of the reconstituted material was injected into the HPLC system. […] A standard curve of the test compound was prepared by adding increasing concentrations of the compound to brain, tissue from untreated mice, then extracting the brains and performing HPLC analysis as described above. The area under the curve increased linearly with the concentration of the compound over the range of concentrations investigated, with a correlation coefficient of 0.99.

[4] = Stability in liver microsomes; format: in vitro ADME, rat; conditions: 1 μM, NADPH-regenerating system, 37° C.
Text: The HPLC system (Dionex Corp., Sunnyvale, Calif.) includes a Dionex […] pump, a Phenomenex Luna.

activated glia = test: Western blots of iNOS, COX-2, apoE production in activated glia cultures; format: cell-based; conditions: 7.5 μM, western blot
Method: Cultures were treated with control buffer, C, or activated in the absence, A, or presence, A+188, of 7.5 μMW01-5-188WH. […] Bar=125 μm. […] A schematic of the experimental paradigm is shown. […] Bars=25 μm. […] Quantification of amyloid burden from all mice (n=5/group) was done by determination of the amyloid load. Data are mean±SEM. […] (C) Spontaneous alternation of mice in the Y-maze, a hippocampus-dependent spatial learning task, was measured for 10 days during the 7th and 8th week after the start of Aβ infusion. Data are mean±SEM of n=5 or 10 per group.

T1 sequence (Q12809 whole entry): as above

## c1ccc(-c2cc(-c3ccncc3)c(N3CCN(c4ncccn4)CC3)nn2)cc1 [MW01-6-189WH, 4-pyridyl-6-phenyl-3-(4-pyrimidin-2-ylpiperazin-1-yl)pyridazine]
hERG K+ channel
  IC50: 4.81 µM

## Cc1cc(-c2ccccc2)nnc1N1CCN(c2ncccn2)CC1 [MW01-2-151SRM, 4-methyl-6-phenyl-3-(4-pyrimidin-2-ylpiperazin-1-yl)pyridazine]
[1]; mouse, in vivo
  efficacy in the mouse model of human Aβ-induced neuroinflammation and neuronal injury: showed efficacy
  inflammatory response endpoints outside the brain: did not suppress
Anesthetized guinea pigs
  heart rate: no significant effects
  mean blood pressure: no significant effects
Anesthetized guinea pigs; baseline, 15, 30, 45, 60 min, vs mean+2 SD of vehicle control
  cardiac QT interval: Neither compound increased
[2]
  activated glia responses: selective suppressor
  IL-1β production: suppress IL-1β in a concentration dependent manner
hERG
  inhibition at 10 µM: 8%
[3]
  oral availability: orally available
[4]
  stability in microsomes: demonstrated
hERG K+ channel
  IC50: 9.21 µM

## c1ccc(-c2ccc(N3CCN(c4ncccn4)CC3)nn2)cc1 [MW01-3-183WH, 2-(4-(6-phenylpyridazin-3-yl)piperazin-1-yl)pyrimidine]
[2]
  IL-1β production: suppressed both IL-1β and TNFα production in a concentration dependent manner
  TNFα production: suppressed both IL-1β and TNFα production in a concentration dependent manner

## c1ccc(-c2cc(-c3ccccc3)c(N3CCN(c4ncccn4)CC3)nn2)cc1 [MW01-5-188WH, 4,6-diphenyl-3-(4-pyrimidin-2-ylpiperazin-1-yl)pyridazine]
[1]; daily oral […] for 2 weeks
  number of F4/80 positive microglia in the hippocampus: decreased
Anesthetized guinea pigs
  heart rate: no significant effects
  mean blood pressure: no significant effects
[2]
  IL-1β production: concentration-dependent inhibition
  TNFα production: concentration-dependent inhibition
[2]; concentrations up to 33 μM
  Accumulation of the NO metabolite, nitrite: not inhibited
hERG
  inhibition at 10 µM: 91%
Activated glia
  COX-2 production: does not suppress
  apoE production: does not suppress
  iNOS production: does not suppress

## Clc1cc(-c2ccccc2)nnc1N1CCN(c2ncccn2)CC1 [MW01-6-127WH, 4-chloro-6-phenyl-3-(4-pyrimidin-2-ylpiperazin-1-yl)pyridazine]
hERG
  inhibition at 10 µM: 19%
